Results published in EP0964681B1, “ANTICONVULSANT DERIVATIVES USEFUL IN TREATING PSORIASIS” (Ortho-McNeil Pharmaceutical, Inc., priority 1996, dated 1998).
Where two headings read alike, the source gives them in different places.

Legend:
[1] = tested on: psoriatic lesions; assay: Clinical studies of topiramate in epilepsy; patients who coincidentally had psoriasis; type: in vivo, human; conditions: reported by at least three epilepsy-trial patients who coincidentally had psoriasis
Protocol: The activity of the compounds of formula I in treating psoriasis was first evidenced in clinical studies conducted to evaluate the efficacy of topiramate in treating epilepsy. […] Therefore, preclinical in vitro studies were conducted to evaluate the effects of topiramate on keratinocyte function as a putative mechanism of action for its potential beneficial effects in treating psoriasis. One of the hallmarks of psoriatic lesions is hyperproliferative epidermal keratinocytes. In general, agents that affect the proliferation of keratinocytes have an inverse effect on differentiation, i.e. they would inhibit growth and enhance differentiation. Two measures of keratinocyte function were therefore evaluated: cell growth and differentiation.

[2] = tested on: keratinocytes; assay: Keratinocyte cell growth induced by EGF and BPE; type: cell-based; conditions: six days of treatment
Protocol: In these studies, keratinocytes were grown in Medium154, a low calcium medium supplemented with bovine pituitary extract (BPE), bovine insulin, bovine transferrin, human epidermal growth factor (EGF) and hydrocortisone. Keratinocytes were grown to 60-80% confluence and subcultured by using trypsin/EDTA. Four separate experiments were performed to evaluate the dose-dependent effect of topiramate on keratinocyte cell growth as measured by […] after six days of treatment. Topiramate was dissolved in DMSO to make a 100 mM stock solution. In all experiments the final concentration of DMSO in the cell incubation medium was 0.1%. Vehicle controls (0.1% DMSO) were included in each experiment. Cell growth was induced by a combination of the growth factors EGF and BPE.

[3] = tested on: keratinocytes; assay: Keratinocyte differentiation measured by expression of transglutaminase-1 protein; type: cell-based
Protocol: In these studies, keratinocytes were grown in Medium154, a low calcium medium supplemented with bovine pituitary extract (BPE), bovine insulin, bovine transferrin, human epidermal growth factor (EGF) and hydrocortisone. Keratinocytes were grown to 60-80% confluence and subcultured by using trypsin/EDTA. The effect of topiramate on keratinocyte differentiation was measured by the expression of transglutaminase-1 protein after three days of treatment. Three separate experiments were performed. Differentiation was evaluated in both low calcium and high calcium incubation conditions. An increase in differentiation would be most readily observed under low calcium conditions whereas an inhibition of differentiation could be detected under conditions of high calcium-induced differentiation. […] A follow-up study was conducted which extended the incubation time to 5 days to look for further enhancement.

[4] = tested on: simple and complex partial seizures and secondarily generalized seizures; conditions: clinical trials; adjunctive therapy or monotherapy; cited from earlier work
[5] = tested on: seizures; conditions: several rodent models of epilepsy; cited from earlier work
[6] = tested on: seizures; conditions: animal model of kindled epilepsy; cited from earlier work

CC1(C)O[C@@H]2[C@@H](CO[C@@]3(COS(N)(=O)=O)OC(C)(C)O[C@@H]23)O1 [topiramate, 2,3:4,5-bis-O-(1-methylethylidene)-β-D-fructopyranose sulfamate]
psoriatic lesions [1]: marked reduction in the psoriatic lesions | Emax at 10 µM ([2]; Keratinocyte, 144 h, 10 micromolar, growth induced by EGF and BPE, four experiments, not statistically significant (p>0.05), read-out: inhibition of cell growth (maximal response)): 32 ± 10% | dose dependence of the effect on keratinocyte cell growth ([2]; four experiments): no dose dependence was observed | effect on keratinocyte cell growth ([2]; growth induced by EGF and BPE, 0.1% DMSO): modest inhibitory effect | transglutaminase-1 protein ([3]; follow-up study, incubation time extended to 5 days): No additional increases | transglutaminase-1 protein ([3]; high calcium incubation conditions, three days of treatment): modest increase | transglutaminase-1 protein ([3]; low calcium incubation conditions, three days of treatment): modest increase | efficacy in treating simple and complex partial seizures and secondarily generalized seizures [4]: effective as adjunctive therapy or as monotherapy | block of seizures [5]: effectively block seizures | block of seizures [6]: effectively block seizures
